Here are results for nine compounds from ChEMBL document CHEMBL5291721, “A preclinical secondary pharmacology resource illuminates target-adverse drug reaction associations of marketed drugs” (Nat Commun, 2023).

Assay [1] has as its target T1, Gastrin/cholecystokinin type B receptor (Homo sapiens, UniProt P32239).
T1 sequence (P32239 whole entry): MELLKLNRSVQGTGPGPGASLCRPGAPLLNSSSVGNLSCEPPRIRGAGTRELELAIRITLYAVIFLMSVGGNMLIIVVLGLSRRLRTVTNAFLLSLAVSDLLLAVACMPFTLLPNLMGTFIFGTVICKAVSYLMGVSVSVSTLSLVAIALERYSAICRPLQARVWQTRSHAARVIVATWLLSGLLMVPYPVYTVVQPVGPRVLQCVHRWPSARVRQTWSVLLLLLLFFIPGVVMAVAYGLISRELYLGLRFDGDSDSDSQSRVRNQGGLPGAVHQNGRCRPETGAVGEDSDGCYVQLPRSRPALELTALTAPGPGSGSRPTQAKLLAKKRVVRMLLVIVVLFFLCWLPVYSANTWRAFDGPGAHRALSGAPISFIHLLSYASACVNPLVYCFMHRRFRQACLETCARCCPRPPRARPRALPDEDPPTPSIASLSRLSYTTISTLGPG

For another assay, the target named is T2, Glucocorticoid receptor (Homo sapiens, UniProt P04150).
T2 sequence (P04150 whole entry): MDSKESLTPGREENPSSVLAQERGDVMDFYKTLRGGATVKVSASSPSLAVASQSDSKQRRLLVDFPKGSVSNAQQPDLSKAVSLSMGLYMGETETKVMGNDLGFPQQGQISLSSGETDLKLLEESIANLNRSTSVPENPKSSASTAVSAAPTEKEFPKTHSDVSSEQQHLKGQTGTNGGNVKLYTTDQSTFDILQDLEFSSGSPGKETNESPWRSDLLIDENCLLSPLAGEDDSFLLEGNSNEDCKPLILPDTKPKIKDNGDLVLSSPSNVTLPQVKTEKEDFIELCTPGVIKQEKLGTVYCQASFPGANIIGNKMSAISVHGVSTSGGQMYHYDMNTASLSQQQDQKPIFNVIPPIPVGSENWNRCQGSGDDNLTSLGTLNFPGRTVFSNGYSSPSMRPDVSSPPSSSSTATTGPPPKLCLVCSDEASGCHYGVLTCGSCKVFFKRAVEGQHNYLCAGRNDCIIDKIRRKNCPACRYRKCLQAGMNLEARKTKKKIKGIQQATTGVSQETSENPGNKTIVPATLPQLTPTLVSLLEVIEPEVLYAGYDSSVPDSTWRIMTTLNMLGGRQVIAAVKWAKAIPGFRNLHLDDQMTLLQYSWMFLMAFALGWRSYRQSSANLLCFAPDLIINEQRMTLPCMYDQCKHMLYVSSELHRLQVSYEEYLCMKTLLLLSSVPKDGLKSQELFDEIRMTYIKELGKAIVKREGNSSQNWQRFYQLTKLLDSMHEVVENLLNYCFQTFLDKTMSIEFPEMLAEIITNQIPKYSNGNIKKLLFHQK

A further assay has as its target T3, Endothelin-1 receptor (Homo sapiens, UniProt P25101).
T3 sequence (P25101 whole entry): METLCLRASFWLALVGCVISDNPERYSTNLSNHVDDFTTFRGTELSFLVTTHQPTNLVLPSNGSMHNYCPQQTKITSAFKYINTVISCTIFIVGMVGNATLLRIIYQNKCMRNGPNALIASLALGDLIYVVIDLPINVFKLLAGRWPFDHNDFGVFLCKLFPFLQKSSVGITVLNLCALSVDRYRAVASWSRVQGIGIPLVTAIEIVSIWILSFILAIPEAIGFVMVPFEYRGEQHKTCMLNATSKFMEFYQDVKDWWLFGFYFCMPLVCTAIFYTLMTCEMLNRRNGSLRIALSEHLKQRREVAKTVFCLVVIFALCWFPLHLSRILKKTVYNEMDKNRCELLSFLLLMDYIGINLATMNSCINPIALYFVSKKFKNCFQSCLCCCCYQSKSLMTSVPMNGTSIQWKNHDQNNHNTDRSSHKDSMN

For the next assay, the target named is Vasopressin V2 receptor (Homo sapiens, UniProt P30518).
Assay [2] concerns the target T4, Alpha-1A adrenergic receptor (Homo sapiens, UniProt P35348).
T4 sequence (P35348 whole entry): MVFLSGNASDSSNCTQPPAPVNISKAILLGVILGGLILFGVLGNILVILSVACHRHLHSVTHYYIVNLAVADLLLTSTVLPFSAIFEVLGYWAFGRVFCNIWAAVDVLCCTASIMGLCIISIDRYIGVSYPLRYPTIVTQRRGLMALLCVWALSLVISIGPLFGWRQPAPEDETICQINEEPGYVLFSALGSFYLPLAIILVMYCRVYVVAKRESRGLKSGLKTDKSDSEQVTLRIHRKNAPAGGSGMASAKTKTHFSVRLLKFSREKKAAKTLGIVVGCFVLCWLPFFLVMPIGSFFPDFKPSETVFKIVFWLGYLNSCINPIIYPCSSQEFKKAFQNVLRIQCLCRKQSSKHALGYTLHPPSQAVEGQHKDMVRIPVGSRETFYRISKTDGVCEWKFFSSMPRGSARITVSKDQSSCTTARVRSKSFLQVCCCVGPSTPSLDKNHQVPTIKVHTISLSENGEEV

Another assay concerns the target Motilin receptor (Homo sapiens, UniProt O43193).
For the next assay, the target named is T5, Adenosine receptor A1 (Homo sapiens, UniProt P30542).
T5 sequence (P30542 whole entry): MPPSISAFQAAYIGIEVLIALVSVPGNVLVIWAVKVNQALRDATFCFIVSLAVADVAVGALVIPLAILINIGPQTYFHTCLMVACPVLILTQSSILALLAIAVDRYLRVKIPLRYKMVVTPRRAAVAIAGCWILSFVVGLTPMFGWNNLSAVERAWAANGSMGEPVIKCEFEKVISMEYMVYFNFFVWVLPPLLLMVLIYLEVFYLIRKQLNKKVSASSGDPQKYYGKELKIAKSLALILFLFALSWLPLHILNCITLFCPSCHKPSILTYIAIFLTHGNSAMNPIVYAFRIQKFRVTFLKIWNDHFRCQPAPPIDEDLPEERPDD

The target of assay [3] is 5-hydroxytryptamine receptor 2A (Homo sapiens, UniProt P28223). The class given is functional, cell-based.
The target of assay [4] is Neuronal acetylcholine receptor subunit alpha-4 (Homo sapiens, UniProt P43681).
Assay [5] has as its target Voltage-dependent L-type calcium channel subunit alpha-1C (Rattus norvegicus, UniProt P22002). The class given is functional.
Also: assay procedure not described here.

Vasopressin V2 receptor, sequence (P30518 whole entry): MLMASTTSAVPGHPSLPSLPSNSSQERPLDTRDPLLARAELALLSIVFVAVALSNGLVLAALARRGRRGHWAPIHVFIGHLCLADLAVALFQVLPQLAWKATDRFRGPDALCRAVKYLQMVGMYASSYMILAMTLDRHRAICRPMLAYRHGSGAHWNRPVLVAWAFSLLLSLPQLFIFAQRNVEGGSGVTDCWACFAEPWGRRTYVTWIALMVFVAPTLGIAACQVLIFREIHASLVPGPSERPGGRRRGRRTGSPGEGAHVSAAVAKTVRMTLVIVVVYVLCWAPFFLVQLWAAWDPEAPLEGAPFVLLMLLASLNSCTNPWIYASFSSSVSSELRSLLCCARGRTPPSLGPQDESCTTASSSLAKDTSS
Voltage-dependent L-type calcium channel subunit alpha-1C, sequence (P22002 whole entry): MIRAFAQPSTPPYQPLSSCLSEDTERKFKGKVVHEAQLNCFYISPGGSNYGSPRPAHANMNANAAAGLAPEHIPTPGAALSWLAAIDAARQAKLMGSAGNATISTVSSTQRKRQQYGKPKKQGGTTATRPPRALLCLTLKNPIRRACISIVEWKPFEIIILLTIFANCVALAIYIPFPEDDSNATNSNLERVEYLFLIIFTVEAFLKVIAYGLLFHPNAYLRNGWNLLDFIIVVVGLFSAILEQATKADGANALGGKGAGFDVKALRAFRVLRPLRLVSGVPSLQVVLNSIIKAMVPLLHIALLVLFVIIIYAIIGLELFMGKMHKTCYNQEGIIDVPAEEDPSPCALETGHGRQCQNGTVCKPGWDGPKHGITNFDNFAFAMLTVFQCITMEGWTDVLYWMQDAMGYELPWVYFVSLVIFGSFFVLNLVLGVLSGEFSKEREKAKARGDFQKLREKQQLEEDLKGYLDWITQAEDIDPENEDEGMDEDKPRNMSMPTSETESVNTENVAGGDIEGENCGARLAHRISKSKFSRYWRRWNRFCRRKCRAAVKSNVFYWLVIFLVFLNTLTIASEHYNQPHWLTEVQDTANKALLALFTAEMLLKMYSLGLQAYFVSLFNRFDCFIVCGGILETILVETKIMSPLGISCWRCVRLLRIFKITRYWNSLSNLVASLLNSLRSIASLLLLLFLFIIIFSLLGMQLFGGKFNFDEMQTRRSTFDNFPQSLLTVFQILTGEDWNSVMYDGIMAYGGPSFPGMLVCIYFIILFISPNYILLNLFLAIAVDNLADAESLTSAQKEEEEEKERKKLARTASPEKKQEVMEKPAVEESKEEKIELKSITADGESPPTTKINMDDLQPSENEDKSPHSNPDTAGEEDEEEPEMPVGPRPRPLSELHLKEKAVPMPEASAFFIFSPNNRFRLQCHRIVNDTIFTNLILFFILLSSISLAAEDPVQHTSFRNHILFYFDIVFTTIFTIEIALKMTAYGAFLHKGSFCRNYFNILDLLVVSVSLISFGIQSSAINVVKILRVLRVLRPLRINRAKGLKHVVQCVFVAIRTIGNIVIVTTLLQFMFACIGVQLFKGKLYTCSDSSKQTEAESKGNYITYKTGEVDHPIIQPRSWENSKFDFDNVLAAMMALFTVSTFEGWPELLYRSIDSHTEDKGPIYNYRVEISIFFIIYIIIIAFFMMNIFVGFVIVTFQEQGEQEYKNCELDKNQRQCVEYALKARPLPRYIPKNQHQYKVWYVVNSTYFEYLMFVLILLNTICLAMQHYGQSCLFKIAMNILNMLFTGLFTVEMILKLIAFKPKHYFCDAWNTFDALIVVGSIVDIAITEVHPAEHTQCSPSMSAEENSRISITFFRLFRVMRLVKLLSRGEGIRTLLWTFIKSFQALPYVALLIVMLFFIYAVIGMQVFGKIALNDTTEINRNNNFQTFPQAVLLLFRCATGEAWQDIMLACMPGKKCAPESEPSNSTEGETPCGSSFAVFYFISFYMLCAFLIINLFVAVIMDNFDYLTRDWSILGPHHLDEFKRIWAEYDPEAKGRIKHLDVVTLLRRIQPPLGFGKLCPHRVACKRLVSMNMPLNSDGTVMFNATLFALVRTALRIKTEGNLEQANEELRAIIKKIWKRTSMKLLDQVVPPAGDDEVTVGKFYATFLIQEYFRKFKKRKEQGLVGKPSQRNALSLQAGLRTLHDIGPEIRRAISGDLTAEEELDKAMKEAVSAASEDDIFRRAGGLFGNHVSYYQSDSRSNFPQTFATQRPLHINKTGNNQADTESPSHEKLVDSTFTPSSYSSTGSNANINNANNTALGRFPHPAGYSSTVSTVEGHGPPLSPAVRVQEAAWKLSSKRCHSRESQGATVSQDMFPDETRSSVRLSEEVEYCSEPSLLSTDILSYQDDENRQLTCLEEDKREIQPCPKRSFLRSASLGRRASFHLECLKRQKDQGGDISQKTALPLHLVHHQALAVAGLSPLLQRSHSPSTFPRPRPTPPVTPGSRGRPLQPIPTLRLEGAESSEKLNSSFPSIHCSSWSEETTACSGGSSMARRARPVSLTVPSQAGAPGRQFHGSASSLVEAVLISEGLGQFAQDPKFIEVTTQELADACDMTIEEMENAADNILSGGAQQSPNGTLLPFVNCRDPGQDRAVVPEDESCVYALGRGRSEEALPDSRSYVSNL
5-hydroxytryptamine receptor 2A, sequence (P28223 whole entry): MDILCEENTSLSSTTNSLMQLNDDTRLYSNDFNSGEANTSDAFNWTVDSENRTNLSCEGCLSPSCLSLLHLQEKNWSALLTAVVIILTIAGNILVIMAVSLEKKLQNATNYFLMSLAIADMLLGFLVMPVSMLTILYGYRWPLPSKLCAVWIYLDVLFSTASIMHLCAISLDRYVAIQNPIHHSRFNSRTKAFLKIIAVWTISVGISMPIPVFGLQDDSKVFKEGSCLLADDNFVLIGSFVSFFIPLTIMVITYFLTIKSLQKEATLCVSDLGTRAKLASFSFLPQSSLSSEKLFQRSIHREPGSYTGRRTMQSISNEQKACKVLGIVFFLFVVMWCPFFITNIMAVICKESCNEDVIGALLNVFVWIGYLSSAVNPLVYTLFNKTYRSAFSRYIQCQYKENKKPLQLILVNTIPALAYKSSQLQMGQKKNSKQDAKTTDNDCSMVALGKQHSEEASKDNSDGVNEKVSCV
Motilin receptor, sequence (O43193 whole entry): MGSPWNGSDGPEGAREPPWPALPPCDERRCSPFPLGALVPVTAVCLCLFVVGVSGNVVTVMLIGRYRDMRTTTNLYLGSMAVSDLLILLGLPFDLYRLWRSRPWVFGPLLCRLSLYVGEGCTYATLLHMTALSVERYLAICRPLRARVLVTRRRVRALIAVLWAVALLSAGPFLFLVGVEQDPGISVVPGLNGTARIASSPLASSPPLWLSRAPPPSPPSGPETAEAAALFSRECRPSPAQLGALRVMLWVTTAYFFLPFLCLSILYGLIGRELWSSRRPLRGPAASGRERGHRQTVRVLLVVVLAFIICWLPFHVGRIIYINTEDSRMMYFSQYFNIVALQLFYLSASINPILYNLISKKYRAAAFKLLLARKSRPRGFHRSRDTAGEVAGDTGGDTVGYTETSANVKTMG
Neuronal acetylcholine receptor subunit alpha-4, sequence (P43681 whole entry): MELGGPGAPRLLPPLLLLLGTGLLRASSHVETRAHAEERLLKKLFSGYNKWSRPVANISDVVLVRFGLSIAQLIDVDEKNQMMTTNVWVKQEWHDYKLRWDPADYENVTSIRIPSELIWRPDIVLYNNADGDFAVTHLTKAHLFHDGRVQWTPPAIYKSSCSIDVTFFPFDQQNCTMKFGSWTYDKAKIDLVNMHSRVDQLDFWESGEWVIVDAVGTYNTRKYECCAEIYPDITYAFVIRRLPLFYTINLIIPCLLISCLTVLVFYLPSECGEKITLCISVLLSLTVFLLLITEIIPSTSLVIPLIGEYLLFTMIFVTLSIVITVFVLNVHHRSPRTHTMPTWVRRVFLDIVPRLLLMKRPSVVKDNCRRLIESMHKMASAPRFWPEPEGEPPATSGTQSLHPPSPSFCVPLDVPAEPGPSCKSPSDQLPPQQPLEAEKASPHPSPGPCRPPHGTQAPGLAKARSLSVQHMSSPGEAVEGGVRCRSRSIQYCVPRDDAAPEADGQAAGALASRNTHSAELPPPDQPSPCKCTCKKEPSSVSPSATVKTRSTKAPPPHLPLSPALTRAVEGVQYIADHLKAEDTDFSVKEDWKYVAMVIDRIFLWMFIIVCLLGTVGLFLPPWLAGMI

The AC50 is the midpoint of the concentration-response curve, whichever way the signal moves. As to `O=C(Nc1ccccc1)OCC(CN1CCCCC1)OC(=O)Nc1ccccc1` (configuration not stated) [DIPERODON], the AC50 in assay [1] is greater than 30 µM; on Glucocorticoid receptor, greater than 30 µM; at Endothelin-1 receptor it was greater than 30 µM; at Vasopressin V2 receptor it was greater than 30 µM; in assay [2], greater than 10 µM; on Motilin receptor it was greater than 10 µM. Also, the AC50 (on Adenosine receptor A1; in assay [3]) was greater than 30 µM each time.

On to `CC(=O)N(CC(O)CO)c1c(I)c(C(=O)NCC(O)CO)c(I)c(C(=O)NCC(O)CO)c1I` (configuration not stated) [IOHEXOL], for which the AC50 in [1] was greater than 30 µM; in assay [4] it was greater than 10 µM; at Vasopressin V2 receptor, greater than 30 µM; in assay [2] it was greater than 10 µM; on Motilin receptor, greater than 10 µM; in assay [5], greater than 10 µM. For the same compound, the half-maximal activity concentration (AC50) (at Adenosine receptor A1; in [3]) was greater than 30 µM throughout.

In the case of `CC(C)(N)Cc1ccc(Cl)cc1` [CHLORPHENTERMINE], the AC50 is greater than 30 µM in [1]; greater than 30 µM on Endothelin-1 receptor; 10 µM in [4]; greater than 30 µM on Vasopressin V2 receptor; greater than 10 µM in assay [2]; greater than 10 µM on Motilin receptor. In addition, the results for the AC50 (in assay [5]; on Adenosine receptor A1; in assay [3]) were greater than 10 µM, greater than 30 µM and greater than 30 µM, respectively.

Regarding `CC(C)NCC1CCc2cc(CO)c([N+](=O)[O-])cc2N1` (configuration not stated) [OXAMNIQUINE], the AC50 (on Glucocorticoid receptor; in assay [4]; on Vasopressin V2 receptor; in assay [2]; on Motilin receptor; in assay [5]) was greater than 10 µM in each case. Besides, the AC50 at Adenosine receptor A1 is greater than 10 µM; in assay [3], greater than 30 µM.

On to `CN(C)[C@@H]1C(O)=C(C(N)=O)C(=O)[C@@]2(O)C(O)=C3C(=O)c4c(O)ccc(Cl)c4[C@@H](O)[C@H]3C[C@@H]12` [DEMECLOCYCLINE], for which the AC50 was greater than 30 µM on Glucocorticoid receptor; greater than 10 µM in [4]; greater than 10 µM at Vasopressin V2 receptor; greater than 10 µM in assay [2]; greater than 10 µM at Motilin receptor; greater than 10 µM in assay [5]. The half-maximal activity concentration (AC50) (at Adenosine receptor A1; in assay [3]) was greater than 10 µM in each case.

Consider `C=C1C[C@@H]2[C@H](CC[C@]3(C)C(=O)CC[C@@H]23)[C@@]2(C)C=CC(=O)C=C12` [EXEMESTANE], for which the AC50 in assay [1] was greater than 30 µM; at Endothelin-1 receptor, greater than 30 µM; in assay [4], greater than 10 µM; at Vasopressin V2 receptor, greater than 30 µM; in assay [2] it was greater than 10 µM; at Motilin receptor, greater than 10 µM. Further, the AC50 was greater than 10 µM in [5], greater than 30 µM at Adenosine receptor A1 and greater than 30 µM in assay [3].

`O=C(O)CCn1c2c(c3ccccc31)C[C@H](NS(=O)(=O)c1ccc(F)cc1)CC2` [RAMATROBAN]: the half-maximal activity concentration (AC50) in assay [1] was greater than 30 µM; at Glucocorticoid receptor it was greater than 30 µM; on Endothelin-1 receptor it was greater than 10 µM; in [4], greater than 30 µM; on Vasopressin V2 receptor, greater than 30 µM; in assay [2], greater than 30 µM. The AC50 on Motilin receptor was greater than 30 µM; in assay [5], greater than 10 µM; at Adenosine receptor A1, greater than 30 µM; in assay [3], greater than 10 µM.

For `CC(=O)N[C@H]1[C@H]([C@H](O)[C@H](O)CO)OC(C(=O)O)=C[C@@H]1N=C(N)N` [ZANAMIVIR], the concentration at half-maximal activity (AC50) (in assay [1]; on Glucocorticoid receptor; in assay [4]; on Vasopressin V2 receptor; in [2]; at Motilin receptor) was greater than 30 µM each time. Moreover, the half-maximal activity concentration (AC50) (in [5]; on Adenosine receptor A1; in [3]) was greater than 30 µM each time.

In the case of `NS(=O)(=O)c1cc(Cl)c(Cl)c(S(N)(=O)=O)c1` [DICHLORPHENAMIDE], the AC50 (on Glucocorticoid receptor; in [4]; at Vasopressin V2 receptor; in [2]; on Motilin receptor; in [5]) was greater than 10 µM each time. Also, the AC50 (on Adenosine receptor A1; in assay [3]) was greater than 10 µM throughout.
